According to patent publication US6900193B1, “Structural modification of 19-norprogesterone I: 17-α-substituted-11-β-substituted-4-aryl and 21-substituted 19-norpregnadienedione as new antiprogestational agents” (The United States of America as represented by the …, priority 1996, dated 2005):

Tests used:
[1] = Lability to base under reverse-phase HPLC conditions; type: physicochemical; conditions: MeOH/H2O/Et3N reverse-phase conditions; converts to compound 8, also at pH 7.0
Protocol: Under nitrogen, a mixture of the crude ethoxyethylidenedioxy compound (18, 0.56 g., 1.11 mmol), 0.2 M NaOAc (3 mL, […]) in methanol (30 mL) was heated to reflux. Monitoring by TLC (5% acetone/CH2Cl2) indicated a complete reaction in 3.5 hours. The methanol was removed in vacuo under a stream of nitrogen, the residue diluted with water (˜50 mL) and extracted with CH2Cl2 (3×). The organic fractions were combined, washed with H2O (2×) and brine (1×), dried over Na2SO4, filtered and concentrated in vacuo to give 0.56 g of the crude 21-ol, 17α-acetate (41) as a foam. Purification of this material via flash chromatography (7.5% acetone/CH2Cl2) followed by trituration with ether/pentane gave 0.32 g of the target compound, 21-OH, 17α-acetate as an off-white solid in […]; m.p.=205-210° C. The NMR indicated this product contains 5.3% of the 17α-OH, 21-OAc (8) isomer as a contaminant. […] This transesterification occurs at an appreciate rate even when the solvent system is buffered at pH 7.0 with phosphoric acid. The purity of the acetate mixture (8 and 41) was ascertained at >99% by normal phase HPLC analysis (Waters Associates μPorasil Silica using CH3CN/CH2Cl2 (40:60) with a flow rate of 2 mL/min at λ=302 nm). […] The presence of the 17α-OH, 21-OAc isomer (8) to the extent of 5.3% could be detected by the appearance of two doublets, one at 4.88 and the other at 5.11, both with J=18.3 Hz.

[2] = test system: follicular development, ovulation, endometrial maturation; assay: Single oral dose in human subjects (unpublished data); type: in vivo
[3] = test system: early stages of pregnancy; conditions: administered during the early stages of pregnancy; cited from earlier work
implantation = conditions: man; cited from earlier work
[4] = test system: estrogen-insensitive T47Dco human breast cancer cells; conditions: Horwitz 1985; cited from earlier work

CC(=O)O[C@]1(C(=O)CO)CCC2C3CCC4=CC(=O)CCC4=C3C(c3ccc(N(C)C)cc3)C[C@@]21C (stereo partly drawn) [Compound 41, 17α-acetoxy-21-hydroxy-11β-[4-(N,N-dimethylamino)phenyl]-19-norpregna-4,9-diene-3,20-dione]
stability to base [1]: extremely labile to base

CC(=O)O[C@]1(C(C)=O)CC[C@H]2[C@@H]3CCC4=CC(=O)CCC4=C3[C@@H](c3ccc(N(C)C)cc3)C[C@@]21C [Compound 69B, 17α-acetoxy-11β-(4-N,N-dimethylaminophenyl)-19-norpregna-4,9-diene-3,20-dione, reference compound]
effect in human subjects following a single oral dose [2]: affect both follicular development and ovulation as well as endometrial maturation

CC#C[C@]1(O)CC[C@H]2[C@@H]3CCC4=CC(=O)CCC4=C3[C@@H](c3ccc(N(C)C)cc3)C[C@@]21C [mifepristone]
antiprogestational/contragestative effect [3]: effective antiprogestational/contragestative agent | prevention of implantation (implantation): prevent implantation | growth inhibition of T47Dco human breast cancer cells [4]: growth-inhibitory properties
